The target of data set [1] is T1, human serum albumin (HSA) (Homo sapiens, UniProt P02768).
T1 construct: purchased Daicel Chemical Industries CHIRALPAK HSA, column-batch H13L-2405
Briefly: Plasma protein binding using bioaffinity chromatography (CHIRALPAK HSA). The data set is classed as in vitro ADME. The conditions noted are these: bioaffinity chromatography on HSA stationary phase. The procedure: The binding of (±)-SNAP-7941 and FE@SNAP to human serum albumin (HSA) was examined by bioaffinity chromatography according to a previously published manuscript. In short, the analytes were diluted in 2-propanol and ammonium acetate buffer (0.5 mg/ml) and injected on the CHIRALPAK®HSA stationary phase (50 × 3 mm, 5 μm pore size, column-batch: H13L-2405, Daicel Chemical Industries, West Chester, PA, USA). Prior the experiments, the column was calibrated with reference standards, and the resulting regression equation was used to convert the logarithmic capacity factors (log(k′)) to the percent of plasma protein binding (%PPB). The calibration curves, as well as the experiments, were performed by triplicate injections and at least three times.

The next data set concerns the target MCHR1. On the set-up: method as in PMID 28808288. The conditions noted are these: previous experiments; read-out: Affinity to MCHR1 (Ki); cited from earlier work.

Results on 2 compounds are retold here after article PMC6449294, “SNAPshots of the MCHR1: a Comparison Between the PET-Tracers [^18F]FE@SNAP and [^11C]SNAP-7941” (Molecular Imaging and Biology, 2018).

In general, Ki refers to a dissociation constant, usually derived from enzyme kinetics or from competition with a known ligand.

T1 sequence (P02768 25-609): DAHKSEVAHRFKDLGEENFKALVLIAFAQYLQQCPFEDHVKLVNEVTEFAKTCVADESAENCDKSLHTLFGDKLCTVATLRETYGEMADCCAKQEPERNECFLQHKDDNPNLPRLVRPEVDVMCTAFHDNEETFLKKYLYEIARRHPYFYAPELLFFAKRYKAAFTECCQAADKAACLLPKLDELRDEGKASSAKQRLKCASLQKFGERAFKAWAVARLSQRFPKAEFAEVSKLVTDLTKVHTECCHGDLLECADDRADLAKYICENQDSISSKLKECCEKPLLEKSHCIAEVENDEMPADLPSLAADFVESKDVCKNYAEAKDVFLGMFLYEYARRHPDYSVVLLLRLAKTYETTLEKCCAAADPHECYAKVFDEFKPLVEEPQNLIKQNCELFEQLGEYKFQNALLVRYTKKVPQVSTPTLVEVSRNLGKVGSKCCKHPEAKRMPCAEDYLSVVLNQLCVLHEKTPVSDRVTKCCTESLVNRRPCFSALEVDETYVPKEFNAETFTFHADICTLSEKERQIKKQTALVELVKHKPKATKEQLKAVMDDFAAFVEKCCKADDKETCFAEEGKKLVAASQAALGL

With `COCC1=C(C(=O)OCCF)C(c2ccc(F)c(F)c2)N(C(=O)NCCCN2CCC(c3cccc(NC(C)=O)c3)CC2)C(=O)N1` (racemic) [FE@SNAP, (±)-(2-fluoroethyl)-3-{[(3-{4-[3-(acetylamino)phenyl]-1-piperidinyl}propyl)amin]carbonyl}-4-(3,4-difluorophenyl)-6-(methoxymethyl)-2-oxo-1,2,3,4-tetra-hydro-5-pyrimidenecarboxylate], the “Plasma protein binding (%PPB) / Binding to human serum albumin” value in data set [1] was 77 ± 0.2%. In addition, on MCHR1, the Ki is 9.98 ± 1.12 nM.

Take `COCC1=C(C(=O)OC)[C@H](c2ccc(F)c(F)c2)N(C(=O)NCCCN2CCC(c3cccc(NC(C)=O)c3)CC2)C(=O)N1` (racemic) [(±)-SNAP-7941, reference compound]: in data set [1], the “Plasma protein binding (%PPB) / Binding to human serum albumin” value is 80 ± 0.9%. Also, the Ki on MCHR1 is 3.91 ± 0.74 nM.
